Consider two compounds from patent publication US9927437B2, “Treating neurodegenerative disease” (THE BRIGHAM AND WOMEN'S HOSPITAL, INC., priority 2013, dated 2018).

In this data set the test system is astrocytes. Kind of data set: mRNA expression in astrocytes isolated from EAE NOD mice (nCounter, qPCR). In kind it is in vivo, mouse. As for the experimental part:
Mononuclear cells were isolated from the CNS as previously described^50 with minor modifications. Naïve and EAE mice were euthanatized, and then subjected to perfusion through the left ventricle with ice-cold sterile PBS. Brains and spinal cord were then removed, minced and enzymatically dissociated with 0.05% (w/v) collagenase type III (Worthington Biochemical), 0.5% Dispase II (Roche Applied Science), 40 μg/ml DNAse I, 20 mM HEPES in HBSS) for 30 min at 37 C to make a suspension of single cells. Enzymes were inactivated with 20 ml of Ca^2+/Mg^2+-free HBSS containing 2 mM EDTA and 20 mM HEPES. The digested tissue was triturated and passed through a […] cell strainer. Cells were centrifuged and resuspended in 30% isotonic Percoll (GE Healthcare) and 40 μg/ml DNAse I, underlined by 70% isotonic Percoll, and centrifuged at 1000×g at 4° C. for 25 min. Cells were collected from the 70%-30% interphase, and sorted by FACS Aria.
These purification procedures are based on previously described dissociation and purification protocols^50,51. Isolated CNS cells, were incubated with anti-Mouse CD16/CD32 for 15 min on ice to block the Fc receptors, and stained with fluorochrome-conjugated antibody for CD11b (M1/70), CD45(90), CD3 (145-2C11), CD4 (GK1.5), and Ly6C (HK1.4), and Biotion-conjugated GSL I—isolectin B4 (Vector labs), CD105 (N418), CD140a (APA5), CD11c (N418), F4/80 (BM8), O4 (O4, Miltenyi Biotec), and CD19 (eBio1D3), and un-conjugated antibodies recognizing mouse MOG (8-18C5, Millipore), O1 (O1), and Galactocerebroside (mGlaC, Millipore). All antibodies were from Ebioscience, unless otherwise mentioned (clone number, when relevant, in parentheses). Cells were washed and incubated PE-conjugated Streptavidin and R-Phycoerythrin AffiniPure F(ab′)2 fragment of Goat Anti-Mouse IgG+IgM (H+L) (Jackson ImmunoResearch laboratories) for 20 min at 4 C in the dark. Cells were washed, incubated with 7-AAD or Fixable Viability Dye eFluor® 450 (if cells were to be used for intracellular staining), for exclusion of dead cells (FIG. S3A), and sorted as following. Microglia were sorted as CD11b^+ cells with low CD45 expression and low Ly6C (CD11b+/CD45^low/Ly6C^low), while the inflammatory monocytes were considered as CD11b^+/Ly6C^high 52. T-cells were sorted as CD3^+CD4^+ cells. Astrocytes were isolated following the depletion of lymphocytes, microglia, monocytes (FIG. S3B), and oligodendrocytes, and lymphocytes (T-cells, B-cells, and NK cells) (FIG. S3C). […] We confirmed that we had isolated a relatively pure populations of astrocytes by qPCR for the astrocyte markers^44,51 gfap, aldh1l1 and aqp4, and found them to be exclusively expressed in the astrocyte fraction (in a similar expression pattern to that of GFP^+ astrocytes sorted from Tg(GFP-hGFAP) FVB transgenic mice^49) (FIG. S3E). We used an additional cohort of markers to explore for presence of immune cells [microglia/monocytes cells—itgam (CD11b), and emr1 (F4/80), dendritic cells—itgax (CD11c), NK cells—Klrb1c (Nk1.1), T-cells—cd3, and B-cells—cd19], oligodendrocytes (mog, mbp), and neurons (syt1, snap25) (FIG. S3F, G).
100-200 ng of total RNA was hybridized with reporter and capture probes for nCounter Gene Expression code sets (Mouse Inflammation Kit, or a custom made astrocyte-oriented probe set (Table S1)), according to manufacturer's instructions (NanoString Technologies). Data were normalized to spiked positive controls and housekeeping genes (nSolver Analysis system). Transcript counts less than the mean of the negative control transcripts plus 2 standard deviations for each sample were considered background.
Nanostring generated gene expression data were analyzed by use of the Expander 6.06 platform^53. Genes were clustered using the unbiased CLICK algorithm, and each cluster was further analyzed for enrichments in transcription factors binding sites (promoter analysis).
For orientation: Quantitative PCR measures a nucleic acid by following its amplification.

For `CCCCCCCCCC(=O)N[C@H](CN1CCOCC1)[C@H](O)c1ccccc1` [PDMP, D-threo-1-phenyl-2-decanoylamino-3-morpholino-1-propanol], for the setting “NOD EAE progressive phase”, the “expression of demyelination-associated genes in astrocytes” value is recorded as “significant reduction” and the “expression of remyelination-associated genes in astrocytes” value is recorded as “increased expression”. In addition, for the setting “NOD EAE progressive phase (day 100), qPCR”, the “expression of representative cluster 2 genes (ccl2, ccl5, cxcl10, il1b, nos2, opn, H2-Aa, vim) in astrocytes” value is “suppressive effects”. Also, the “irf1 and relB expression in astrocytes” value (NOD EAE, qPCR) is “subsequent suppression”.

On to “shB4galt6: lentivirus-delivered shRNA against b4galt6 (TRCN0000334278; SEQ ID NO:3) (guide CGATGGACTGAACAATTTATTCTCGAGAATAAATTGTTCAGTCCACG)”, for which the “b4galt6 and b4galt5 expression in astrocytes” value (NOD EAE, i.c.v. lentivirus at day 35, qPCR) is on record as “astrocyte-specific knock-down”. The “csf2 expression in astrocytes” value (chronic NOD EAE, 10 days after i.c.v. shRNA lentivirus) is on record as “significant decrease”.
